Measured values: paper PMC6864482, “Novel C7-Substituted Coumarins as Selective Monoamine Oxidase Inhibitors: Discovery, Synthesis and Theoretical Simulation” (Molecules, 2019)
Where a name gives a salt, the structure may show the parent alone. Read-outs that look alike come from different tables or passages of the source.

Key:
[1] = biological target: T1, hMAO-B (Homo sapiens, UniProt P27338); assay: MAO-Glo inhibition assay, hMAO-B; assay type: biochemical
T1 sequence (P27338 1-520): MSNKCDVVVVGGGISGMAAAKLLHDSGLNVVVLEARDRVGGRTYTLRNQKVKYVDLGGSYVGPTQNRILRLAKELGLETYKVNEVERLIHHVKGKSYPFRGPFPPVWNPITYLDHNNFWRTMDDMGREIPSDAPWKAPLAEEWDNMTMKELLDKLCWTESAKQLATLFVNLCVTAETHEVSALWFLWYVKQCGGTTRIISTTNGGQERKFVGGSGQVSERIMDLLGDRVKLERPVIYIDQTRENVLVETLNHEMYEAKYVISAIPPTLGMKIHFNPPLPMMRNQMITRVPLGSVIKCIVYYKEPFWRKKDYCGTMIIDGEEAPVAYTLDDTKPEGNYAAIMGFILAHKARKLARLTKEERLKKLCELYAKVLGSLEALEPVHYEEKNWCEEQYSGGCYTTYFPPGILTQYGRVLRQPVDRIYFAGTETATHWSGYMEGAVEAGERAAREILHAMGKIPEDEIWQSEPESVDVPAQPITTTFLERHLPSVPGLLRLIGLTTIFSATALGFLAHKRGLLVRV
Procedure: (§1) The inhibition and IC50 values of the identified C7-substituted coumarin analogues were assayed by Shanghai ChemPartner Co. Ltd., using MAO-GloTM assay kit (Promega Corporation, V1402). Two human MAO enzymes (Cat#31502, Cat#31503) were purchased from Active Motif. Clorgyline and R(-)-deprenyl were purchased as reference drugs from Sigma (Cat. No. M3778) and Abcam (Cat. No. ab120604), respectively. The MAO inhibition assays were carried out in modified HEPES buffer in light of the manufacturer’s protocol. Firstly, the tested compounds in DMSO were transferred to a 384-well plate by Echo. The enzyme solutions were then added into the plate and the plate was incubated for 15 min at room temperature (r.t.). Secondly, the luciferin derivative substrate was added to initiate the reaction. After 60 min incubation at r.t., the Luciferin detection reagent was added to each well to terminate the reaction and generate the luminescent signal. Before reading the signal, the plate was incubated for 20 min at r.t. Finally, plate reader was used to measure and record the luminescent signal and corresponding data were processed using GraphPad Prism 5.

[2] = biological target: T2, hMAO-A (Homo sapiens, UniProt P21397); assay: MAO-Glo inhibition assay, hMAO-A; assay type: biochemical
T2 sequence (P21397 1-527): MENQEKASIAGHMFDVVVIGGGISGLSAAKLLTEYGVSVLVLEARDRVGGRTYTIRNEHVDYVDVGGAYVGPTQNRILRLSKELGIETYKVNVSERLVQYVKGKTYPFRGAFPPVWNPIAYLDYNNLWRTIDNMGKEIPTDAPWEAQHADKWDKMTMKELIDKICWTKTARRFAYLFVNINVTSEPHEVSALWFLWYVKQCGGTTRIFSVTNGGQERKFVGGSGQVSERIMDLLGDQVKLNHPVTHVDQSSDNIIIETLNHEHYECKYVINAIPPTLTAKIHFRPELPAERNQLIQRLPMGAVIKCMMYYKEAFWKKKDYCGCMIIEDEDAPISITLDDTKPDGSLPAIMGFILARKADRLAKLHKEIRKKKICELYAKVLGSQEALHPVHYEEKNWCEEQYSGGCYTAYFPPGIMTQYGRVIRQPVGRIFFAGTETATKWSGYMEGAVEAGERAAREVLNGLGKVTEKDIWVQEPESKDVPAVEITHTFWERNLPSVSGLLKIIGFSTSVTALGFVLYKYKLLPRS
Procedure: as §1

[3] = biological target: T2, hMAO-A; settings: previously identified BRS-3D hits, cited from earlier work
[4] = biological target: T1, hMAO-B; settings: previously identified BRS-3D hits, cited from earlier work
[5] = Table S3, Esuprone derivatives, read-out: MAO-A* IC50
[6] = purchased (Specs) or synthesized compounds
[7] = purchased (Specs) or synthesized compounds, read-out: MAO-A IC50

| IC50 ([1]; Table S3, Esuprone derivatives) [nM] | IC50 [2, 5] [nM] | IC50 [1, 6] [nM] | IC50 [2, 7] [nM] | melting point [°C] | Compound | also measured |
| --- | --- | --- | --- | --- | --- | --- |
| 9000 | 95 |  |  |  | O=c1cc(C2CC2)c2ccc(OS(=O)(=O)c3ccc([N+](=O)[O-])cc3)cc2o1 [7f, 4-Cyclopropyl-2-oxo-2H-chromen-7-yl 4-nitrobenzenesulfonate] |  |
|  |  | 440 | 810 | 171 to 173 | Cc1c(C)c2cc(Cl)c(Oc3nnc(-c4ccccc4)s3)cc2oc1=O [7c, 6-Chloro-3,4-dimethyl-7-((5-phenyl-1,3,4-thiadiazol-2-yl)oxy)-2H-chromen-2-one] |  |
|  |  |  |  |  | CCc1cc(=O)oc2cc(OCC(=O)N(C)C)ccc12 [M30] | MAO-A Avg. Inh% at 10 uM [3]: 56%; MAO-B Avg. Inh% at 10 uM [4]: 22% |
|  |  | > 10000 | 2820 |  | Cc1c(OCC(=O)N(C)C)ccc2c3c(c(=O)oc12)CCC3 [FR2] | inhibition at 10 µM [1]: 12% |
|  |  |  |  | 171 to 174 | CCCc1cc(=O)oc2c(C)c(OS(=O)(=O)c3ccc([N+](=O)[O-])cc3)ccc12 (as salt: benzenesulfonate) [7j, 8-Methyl-2-oxo-4-propyl-2H-chromen-7-yl 4-nitrobenzenesulfonate] |  |
|  |  |  |  | 192 to 194 | Cc1c(OS(=O)(=O)c2ccc([N+](=O)[O-])cc2)ccc2c3c(c(=O)oc12)CCC3 (as salt: benzenesulfonate) [5c, 6-Methyl-4-oxo-1,2,3,4-tetrahydrocyclopenta[c]chromen-7-yl 4-nitrobenzenesulfonate] |  |
|  |  | > 1000 | 1.5 |  | Cc1c(OC(=O)C2CC2)ccc2c3c(c(=O)oc12)CCC3 [FR1] | inhibition at 10 µM [1]: 75% |
| 9500 | 1100 |  |  | 132 to 134 | Cc1ccc(S(=O)(=O)Oc2ccc3c(C4CC4)cc(=O)oc3c2)cc1 [7e, 4-Cyclopropyl-2-oxo-2H-chromen-7-yl 4-methylbenzenesulfonate] |  |
|  |  |  |  |  | Cc1cc(=O)oc2cc(OCC(=O)N(C)C)c(Cl)cc12 [M34] | MAO-A Avg. Inh% at 10 uM [3]: 19%; MAO-B Avg. Inh% at 10 uM [4]: 40% |
|  |  | 2300 | 96 | 140 | Cc1c(Oc2nnc(-c3ccccc3)s2)ccc2c3c(c(=O)oc12)CCC3 [5d] |  |
| 4100 | 170 |  |  |  | CCCc1cc(=O)oc2c(C)c(OS(=O)(=O)c3ccc(C)cc3)ccc12 [7i, 8-Methyl-2-oxo-4-propyl-2H-chromen-7-yl 4-methylbenzenesulfonate] |  |
| 1700 | 29 |  |  |  | CCCc1cc(=O)oc2c(C)c(OS(=O)(=O)c3ccc([N+](=O)[O-])cc3)ccc12 [7j, 8-Methyl-2-oxo-4-propyl-2H-chromen-7-yl 4-nitrobenzenesulfonate] |  |
|  |  |  |  |  | CCCc1cc(=O)oc2cc(OCC(=O)N(C)C)ccc12 [M31] | MAO-A Avg. Inh% at 10 uM [3]: 92%; MAO-A pIC50 ([3]; pIC50 = −log(IC50)): 6.3; IC50 ([3]; read-out: MAO-A IC50): 500 nM; MAO-B Avg. Inh% at 10 uM [4]: 16%; MAO-B pIC50 ([4]; pIC50 = −log(IC50)): 4.2; IC50 ([4]; read-out: MAO-B IC50): 64600 nM |
|  |  | 6200 | 2000 | 158 to 160 | O=c1cc(C2CC2)c2ccc(Oc3nnc(-c4ccccc4)s3)cc2o1 [7g, 4-Cyclopropyl-7-((5-phenyl-1,3,4-thiadiazol-2-yl)oxy)-2H-chromen-2-one] |  |
| 9900 | 910 |  |  | 78 to 80 | CCCc1cc(=O)oc2c(C)c(OS(=O)(=O)CC)ccc12 [7h, 8-Methyl-2-oxo-4-propyl-2H-chromen-7-yl ethanesulfonate] |  |
|  |  |  |  | 192 to 194 | O=c1cc(C2CC2)c2ccc(OS(=O)(=O)c3ccc([N+](=O)[O-])cc3)cc2o1 (as salt: benzenesulfonate) [7f, 4-Cyclopropyl-2-oxo-2H-chromen-7-yl 4-nitrobenzenesulfonate] |  |
